Consider 7 compounds from publication PMC10294627, “PhoPQ Regulates Quinolone and Cephalosporin Resistance Formation in Salmonella Enteritidis at the Transcriptional Level” (mBio, 2023).

Read-outs that look alike come from different tables or passages of the source.

The target of test [1] is periplasmic sensor domain of PhoQ (PhoQ^SD), His-tagged, S. Enteritidis (Salmonella Enteritidis). Put plainly: native gel or EMSA; native-PAGE of PhoQ^SD expressed in E. coli BL21; data not shown. A general note: Mobility shift assays separate free from complexed probe on a gel.
In another test the target is T1, His-tagged PhoQ (Salmonella enterica, UniProt P0DM80).
T1 construct: 6xHis-tagged PhoQ, no truncation stated, in membrane extracts of E. coli DH5alpha; anti-His read-out; dimeric histidine kinase
In words: Phos-tag gel autophosphorylation, membrane extract, anti-His blot. The class given is biochemical. To be noted: with ATP, in vitro.

Test [2] deals with T2, PhoQ^SD (periplasmic sensor domain of PhoQ) (Salmonella enterica, UniProt P0DM80).
T2 construct: periplasmic sensor domain (residues 45-188 as aligned; exact construct borders in supplement), His-tagged, pET28a, E. coli BL21, Ni-NTA purified, dimer by native-PAGE
Put plainly: differential scanning calorimetry. The class given is binding. To be noted: 20 μM protein, 100 μM ligand, 10 mM sodium phosphate pH 7.4; Tm of complex, apo Tm 52.29 °C.

Test [3] has as its target T2, PhoQ^SD (periplasmic sensor domain of PhoQ). Put plainly: microscale thermophoresis. The class given is binding. The source says: microscale thermophoresis on PhoQ^SD (periplasmic sensor domain of PhoQ) | NAL, CAZ, or ofloxacin, we also obtained well-fitted curves
A general note: Microscale thermophoresis detects binding through changes in fluorescence in a small temperature gradient.

The term stoichiometry N denotes the number of molecules, sites or subunits per partner or assembly. “periplasmic sensor domain of PhoQ (PhoQ^SD), His-tagged, S. Enteritidis (domain or fragment)”: in test [1], the stoichiometry N amounted to 2.

Consider `CO/N=C(\C(=O)N[C@@H]1C(=O)N2C(C(=O)[O-])=C(C[N+]3(C)CCCC3)CS[C@H]12)c1csc(N)n1` [cefepime], for which, on His-tagged PhoQ, the “Phos-tag gel autophosphorylation, membrane extract, anti-His blot” value (“Phos-tag gel autophosphorylation” below) was “cephalosporins (ceftazidime, ceftriaxone, and cefepime) or ATP”.

Broadly, the Kd is a measure of binding affinity in units of concentration. Turning to `CC(C)(O/N=C(\C(=O)N[C@@H]1C(=O)N2C(C(=O)[O-])=C(C[n+]3ccccc3)CS[C@H]12)c1csc(N)n1)C(=O)O` [ceftazidime], in test [2], the Tm is 50.54 °C. This compound also registered a Kd in test [3] of 25.6 ± 13.4 µM.

On to `CCn1cc(C(=O)O)c(=O)c2ccc(C)nc21` [nalidixic acid], for which the Tm in test [2] amounted to 51.00 °C. This compound also showed a dissociation constant (Kd) in test [3] of 24.7 ± 4.3 µM.

In the case of `CC1COc2c(N3CCN(C)CC3)c(F)cc3c(=O)c(C(=O)O)cn1c23` (stereo not drawn) [ofloxacin], in test [3] (read-out: Kd), the equilibrium dissociation constant (Kd) was 33.1 ± 28.3 µM.

In the case of `O=C(O)c1cn(C2CC2)c2cc(N3CCNCC3)c(F)cc2c1=O` [ciprofloxacin], on His-tagged PhoQ, the “Phos-tag gel autophosphorylation” value is “treated with quinolones (nalidixic acid, ciprofloxacin, and ofloxacin)”.

Turning to `CO/N=C(\C(=O)N[C@@H]1C(=O)N2C(C(=O)O)=C(CSc3nc(=O)c(=O)[nH]n3C)CS[C@H]12)c1csc(N)n1` [ceftriaxone], on His-tagged PhoQ, the “Phos-tag gel autophosphorylation” value was “cephalosporins (ceftazidime, ceftriaxone, and cefepime) or ATP”.
